Results reported in the supplement of paper PMC4862054.

Assays:
Details in all cases: 72 h
Hs578T = test system: Hs578T
Procedure, shortened: (§1)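 Per-plate normalisation used 0.1 % DMSO and a positive kill control. Breast cancer cell lines (20 µl suspension) were seeded into 384-well plates containing compound at 5 concentrations in 10-fold steps across a compound-specific 10,000-fold range, incubated for 72 h, and read first for CellTox Green fluorescence (485/520 nm), then for CellTiter-Glo luminescence. EC50 was fitted from the dose-response curves and censored at the top concentration.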

BT-549 = test system: BT-549
Procedure, shortened: as §1

MDA-MB-436 = test system: MDA-MB-436
Procedure, shortened: as §1

MDA-MB-231 = test system: MDA-MB-231
Procedure, shortened: as §1

MFM-223 = test system: MFM-223
Procedure, shortened: as §1

MCF-10A = test system: MCF-10A
Procedure, shortened: as §1

DU-4475 = test system: DU-4475
Procedure, shortened: as §1

BT-474 = test system: BT-474
Procedure, shortened: as §1

MDA-MB-468 = test system: MDA-MB-468
Procedure, shortened: as §1

CAL-120 = test system: CAL-120
Procedure, shortened: as §1

CAL-51 [1] = test system: CAL-51
Procedure, shortened: as §1

HCC1143 = test system: HCC1143
Procedure, shortened: as §1

SK-BR-3 = test system: SK-BR-3
Procedure, shortened: as §1

CAL-148 = test system: CAL-148
Procedure, shortened: (§2)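 For viability, cells received 2.5 µl CellTiter-Blue for 2 h at 37 °C and fluorescence was read at 560/590 nm. Before this, breast cancer cell lines in 20 µl suspension had been incubated for 72 h on 384-well plates pre-loaded with compound dissolved in 5 µl medium. EC50 was obtained from a percent-inhibition dose-response fit censored at the highest concentration, after normalisation of each plate to vehicle and a positive kill control; rows with a zero drug sensitivity score were discarded.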

MDA-MB-453 = test system: MDA-MB-453
Procedure, shortened: as §2

HDQ-P1 = test system: HDQ-P1
Procedure, shortened: as §2

CAL-51 [2] = test system: CAL-51; remark: listed apart in the source
Procedure, shortened: as §2

CAL-85-1 = test system: CAL-85-1
Procedure, shortened: as §2

SMILES	EC50, CellTiter-Glo (Hs578T) [nM]	EC50, CellTiter-Glo (BT-549) [nM]	EC50, CellTiter-Glo (MDA-MB-436) [nM]	EC50, CellTiter-Glo (MDA-MB-231) [nM]	EC50, CellTiter-Glo (MFM-223) [nM]	EC50, CellTiter-Glo (MCF-10A) [nM]	EC50, CellTiter-Glo (DU-4475) [nM]	EC50, CellTiter-Glo (BT-474) [nM]	EC50, CellTiter-Glo (MDA-MB-468) [nM]	EC50, CellTiter-Glo (CAL-120) [nM]	EC50, CellTiter-Glo (CAL-51 [1]) [nM]	EC50, CellTiter-Glo (HCC1143) [nM]	EC50, CellTiter-Glo (SK-BR-3) [nM]	EC50, CellTiter-Blue viability (CAL-148) [nM]	EC50, CellTiter-Blue viability (MDA-MB-453) [nM]	EC50, CellTiter-Blue viability (HDQ-P1) [nM]	EC50, CellTiter-Blue viability (CAL-51 [2]) [nM]	EC50, CellTiter-Blue viability (CAL-85-1) [nM]
COc1ccc(-c2cc3c(C)nc(N)nc3n([C@H]3CC[C@H](OCCO)CC3)c2=O)cn1	238	186	181	189	261	122	756	162	208	123	105	258	23.8	246	72.8	66.9	140	301
Cc1c(Cn2c(C)nc3c(C(=O)O)cc(N4CCOCC4)cc32)cccc1C(F)(F)F		53.6	> 10000						534		8.16							
Cn1cc(CNCC2CCN(c3ncc(C(=O)NO)cn3)CC2)c2ccccc21														11.9	4.36	18.2	62.1	17.2
O=C(NC[C@H](O)CO)c1ccncc1Nc1ccc(I)cc1F														9.85	4980	161	663	1660
CC/C(=C(\c1ccc(O)cc1)c1ccc(OCCN(C)C)cc1)c1ccccc1 [4-hydroxytamoxifen]		1900	7820	3300	8810				3660	3010			5720					
O=C(Nc1c[nH]nc1-c1nc2ccc(CN3CCOCC3)cc2[nH]1)NC1CC1 [AT9283]	157	406		125	191	102	149	74.7	28.4	146	2.81	121	933	1370	245	771	555	901
COc1cc(CCc2cc(NC(=O)c3ccc(N4CC(C)NC(C)C4)cc3)n[nH]2)cc(OC)c1 (stereo unspecified) [AZD4547]		> 1000			5.91	91.2				68.8				632	310		548	529
CC(=O)OC[C@H]1O[C@@H]([S-])[C@H](OC(C)=O)[C@@H](OC(C)=O)[C@@H]1OC(C)=O.CCP(CC)CC.[Au+] [Auranofin]	1020	386	560	1010	1460	1630	1870	2390	140	2490	199	559	1730					
CCC/C=C/C=C/C(=O)O[C@H]1/C(=C/C(=O)OC)C[C@H]2C[C@H]([C@@H](C)O)OC(=O)C[C@H](O)C[C@@H]3C[C@H](OC(C)=O)C(C)(C)[C@](O)(C[C@@H]4C/C(=C/C(=O)OC)C[C@H](/C=C/C(C)(C)[C@]1(O)O2)O4)O3 [Bryostatin 1]	1.41	> 100									0.32		0.1	> 100				> 100
CO[C@@H](C(=O)N1Cc2[nH]nc(NC(=O)c3ccc(N4CCN(C)CC4)cc3)c2C1)c1ccccc1 [Danusertib]	4060	882	1090	2480	86.5	628	1530	912	25.2	2860	780	8380		21.6	40.9	427	348	435
Cc1nc(Nc2ncc(C(=O)Nc3c(C)cccc3Cl)s2)cc(N2CCN(CCO)CC2)n1 [Dasatinib]	88.7	40.6		16.4		16.4		14	28.5	36.6	12.7	29.5				12.4	22.2	83.9
O=S(=O)(c1cccc2cnccc12)N1CCCNCC1 [Fasudil]	> 50000	24400					> 50000								> 10000			
CS(=O)(=O)N1CCN(Cc2cc3nc(-c4cccc5[nH]ncc45)nc(N4CCOCC4)c3s2)CC1 [GDC-0941]														960	212	156	569	1070
Cc1c(CN2CCN(C(=O)[C@H](C)O)CC2)sc2c(N3CCOCC3)nc(-c3cnc(N)nc3)nc12 [GDC-0980]	445	412	501	580	362	486	2480	375	894	618	423	591	130	306	98.9	139	198	347
C[C@]12O[C@H](C[C@]1(O)CO)n1c3ccccc3c3c4c(c5c6ccccc6n2c5c31)CNC4=O [Lestaurtinib]	354	130	787	188	263	215	188	151	25.2	45.1	> 1000	68.7	215		174		330	284
O=C1c2c(O)ccc(O)c2C(=O)c2c(NCCNCCO)ccc(NCCNCCO)c21 [Mitoxantrone]			495				988				975	314		26.2	539	58.6	10.7	182
Nc1ccccc1NC(=O)c1ccc(CNc2nccc(-c3cccnc3)n2)cc1 [Mocetinostat]	3430	1060	4130	2720	4850	5300	1570	2920	1840	1600	1650	2250	1660	1790	588	9490	3050	1530
COc1nc(N)nc2c1ncn2[C@@H]1O[C@H](CO)[C@@H](O)[C@@H]1O [Nelarabine]			> 10000					> 10000										
Cc1ccc(Nc2nccc(N(C)c3ccc4c(C)n(C)nc4c3)n2)cc1S(N)(=O)=O [Pazopanib]	> 10000	4180			645										608	> 10000		
CS(=O)(=O)N1CCN(Cc2cc3nc(-c4cccc5[nH]ncc45)nc(N4CCOCC4)c3s2)CC1 [Pictilisib]	1890	1410	6050	2960	1580	397		1710	3040	3150	1230	2600	253					
O=C(NC[C@H](O)CO)c1ccncc1Nc1ccc(I)cc1F [Pimasertib]	5910		8470	737	1950	12.9	21.8	456		356	46.2		> 10000					
C[C@]12C=CC(=O)C=C1CC[C@@H]1[C@@H]2[C@@H](O)C[C@@]2(C)[C@H]1CC[C@]2(O)C(=O)CO [Prednisolone]										99.1					171			
Cn1cc(CNCC2CCN(c3ncc(C(=O)NO)cn3)CC2)c2ccccc21 [Quisinostat]	59.1	81.8	50.9	65.4	70.7	92.8	24	58.6	50.7	74.2	78.7	21.5	21.4					
CC(C)N(CCCNC(=O)Nc1ccc(C(C)(C)C)cc1)C[C@H]1O[C@@H](n2cc(Br)c3c(N)ncnc32)[C@H](O)[C@@H]1O [SGC0946]									2470									
CNC(=O)c1cc(Oc2ccc(NC(=O)Nc3ccc(Cl)c(C(F)(F)F)c3)cc2)ccn1 [Sorafenib]																		159
CCN(CC)CCNC(=O)c1c(C)[nH]c(/C=C2\C(=O)Nc3ccc(F)cc32)c1C [Sunitinib]																721		
CC[C@@]1(O)C(=O)OCc2c1cc1n(c2=O)Cc2cc3c(CN(C)C)c(O)ccc3nc2-1 [Topotecan]	5130	1190	378	7050		5600	496	9160	141	4820	785	768	574	63.7	457	> 1000	362	613
